In patent US20260226010A1, “HETEROCYCLIC COMPOUNDS AS PI3Ka INHIBITORS” (Pikavation Therapeutics, Inc., priority 2023, published 2026):

What follows are compounds tested on T47D (PIK3CA H1047R) cells (assay: pS473 AKT assay). Conditions: Homo sapiens; pSer473 AKT in T47D (PIK3CA H1047R) cells, 2 h treatment, DMEM with 2.5% FBS; read-out: T47D_IC50.
Format: cell-based
Procedure: T47D (PIK3CA H1047R) cells were cultured using 10-cm petri dishes with recommended medium plus 10% fetal bovine serum. One day before the assay, cells were seeded in 96-well plates. After overnight incubation, the medium was changed to DMEM with 2.5% fetal bovine serum (FBS) and the cells were treated with different concentrations of the compounds for 2 h. Cells were then fixed using 4% paraformaldehyde at room temperature for 20 min. Aspirate 4% paraformaldehyde, and wash cells using 1× regular phosphate buffered saline 3 times, 5 min each. Aspirate any residual phosphate buffered saline and block cells using 10% goat serum containing 1% bovine serum albumin and 0.3% Triton X-100 at room temperature for 1 h. Without any additional washing, primary antibodies (rabbit anti-pSer473 AKT) were diluted using blocking buffer and added at a final volume of 50 microliter per well. Keep assay plates with primary antibodies overnight at 4° C. Wash cells using 1× regular phosphate buffered saline 3 times, 5 min each. After the final wash, incubate cells with horseradish peroxidase-conjugated secondary antibodies (goat Anti-rabbit IgG) diluted using the same blocking buffer at room temperature for 1 h. Wash cells thoroughly using 1× regular phosphate buffered saline 3 times, 5 min each. Aspirate any residual phosphate buffered saline. Add Super-Signal ELISA Pico Chemiluminescent Substrate at a final volume of 100 microliter per well. Read plates on i3× Multi-Mode Microplate Reader and calculate IC50 values using GraphPad Prism software.

First: Cc1cc2c(c(C(C)Nc3ccccc3C(=O)O)c1)CC1(Cc3ccccc3C1)N(C)C2=O (stereo not shown) [Example 4, 2-[1-(2,7-Dimethyl-1-oxo-spiro[4H-isoquinoline-3,2′-indane]-5-yl)ethylamino]benzoic acid]
Second: Cc1cc2c(c(C(C)Nc3ccccc3C(=O)O)c1)CC1(CCc3ccccc31)N(C)C2=O (stereo not shown) [Example 1, 2-[1-(2,7-Dimethyl-1-oxo-spiro[4H-isoquinoline-3,1′-indane]-5yl)ethylamino]benzoic acid]
The IC50 of the first is higher: 1000 to 5000 nM for the first, under 1000 nM for the second.

`Cc1cc2c(c(C(C)Nc3ccc(Cl)nc3C(=O)O)c1)CC1(CCc3ccccc31)N(C)C2=O` (stereo not shown) [Example 3, 6-Chloro-3-[1-(2,7-dimethyl-1-oxo-spiro[4H-isoquinoline-3,1′-indane]-5-yl)ethylamino]pyridine-2-carboxylic acid] and `Cc1cc2c(c(C(C)Nc3ccc(C)nc3C(=O)O)c1)CC1(CCc3ccccc31)N(C)C2=O` (stereo not shown) [Example 2, 3-[1-(2,7-Dimethyl-1-oxo-spiro[4H-isoquinoline-3,1′-indane]-5-yl)ethylamino]-6-methyl-pyridine-2-carboxylic acid] cannot be ordered by IC50: under 1000 nM for the first, under 1000 nM for the second.

Compared with `Cc1cc2c(c(C(C)Nc3ccc(C)nc3C(=O)O)c1)CC1(Cc3ccccc3C1)N(C)C2=O` (stereo not shown) [Example 5, 3-((1-(2′,7′-Dimethyl-1′-oxo-1,1′,3,4′-tetrahydro-2′H-spiro[indene-2,3′-isoquinolin]-5′-yl)ethyl)amino)-6-methylpicolinic acid], `Cc1cc2c(c(C(C)Nc3ccc(Cl)nc3-c3cnn(C)c3)c1)CC1(CCc3ccccc31)N(C)C2=O` (stereo not shown) [Example 6, 5-[1-[[6-Chloro-2-(1-methylpyrazol-4-yl)-3-pyridyl]amino]ethyl]-2,7-dimethyl-spiro[4H-isoquinoline-3,1′-indane]-1-one] is lower in IC50: 1000 to 5000 nM for the first, under 1000 nM for the second. The second is the more potent here.

In the case of `Cc1cc2c(c(C(C)Nc3ccc(Cl)nc3-c3ccncc3F)c1)CC1(CCc3ccccc31)N(C)C2=O` (stereo not shown) [Example 7, 5-[1-[[6-Chloro-2-(3-fluoro-4-pyridyl)-3-pyridyl]amino]ethyl]-2,7-dimethyl-spiro[4H-isoquinoline-3,1′-indane]-1-one], the IC50 is reported as under 1000 nM.
